# From ChEMBL document CHEMBL1201862, “PubChem BioAssay data set” (2004)
# Calls of active or inactive are those of the source.
# What was measured:
# [1] = biological target: T1, Short transient receptor potential channel 4 (Mus musculus, UniProt Q9QUQ5); assay: block of DAMGO-driven TRPC4 calcium entry – cell-based, HEK293 TRPC4/mu-opioid, Fluo-4 calcium, dose response (AID 434942); type: functional;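 note: potency of inhibitors blocking the TRPC4 calcium response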
# T1 sequence (Q9QUQ5 whole entry): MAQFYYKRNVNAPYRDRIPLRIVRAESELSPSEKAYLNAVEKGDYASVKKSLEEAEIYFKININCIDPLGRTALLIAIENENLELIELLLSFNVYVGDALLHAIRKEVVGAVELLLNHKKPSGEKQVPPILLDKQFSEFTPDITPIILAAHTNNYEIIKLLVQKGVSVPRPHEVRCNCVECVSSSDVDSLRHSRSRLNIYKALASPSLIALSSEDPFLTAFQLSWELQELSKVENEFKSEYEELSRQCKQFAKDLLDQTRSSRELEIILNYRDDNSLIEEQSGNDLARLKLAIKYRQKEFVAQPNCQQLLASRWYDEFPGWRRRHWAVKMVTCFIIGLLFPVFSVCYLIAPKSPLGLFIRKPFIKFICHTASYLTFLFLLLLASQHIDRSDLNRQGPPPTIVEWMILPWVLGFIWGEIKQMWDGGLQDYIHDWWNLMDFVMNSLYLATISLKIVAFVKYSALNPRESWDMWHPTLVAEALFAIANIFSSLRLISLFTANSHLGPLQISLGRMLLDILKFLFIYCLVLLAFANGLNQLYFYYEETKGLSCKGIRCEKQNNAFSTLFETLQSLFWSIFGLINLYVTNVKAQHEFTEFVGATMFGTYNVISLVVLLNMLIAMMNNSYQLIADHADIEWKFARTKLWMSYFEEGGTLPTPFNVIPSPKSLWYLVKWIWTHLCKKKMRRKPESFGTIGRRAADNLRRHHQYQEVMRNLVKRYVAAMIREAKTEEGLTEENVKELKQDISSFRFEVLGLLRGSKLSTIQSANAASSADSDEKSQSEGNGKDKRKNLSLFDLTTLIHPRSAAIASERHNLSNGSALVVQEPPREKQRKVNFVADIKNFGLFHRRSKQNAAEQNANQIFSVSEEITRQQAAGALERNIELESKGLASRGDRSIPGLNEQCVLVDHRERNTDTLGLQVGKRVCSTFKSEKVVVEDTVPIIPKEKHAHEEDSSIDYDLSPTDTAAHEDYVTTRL
# [2] = biological target: Intestinal-type alkaline phosphatase (Homo sapiens, UniProt P09923); assay: Dose Response confirmation of uHTS hits from a small molecule inhibitors of human intestinal alkaline phosphatase via a luminescent assay. [Related pubchem assays (depositor defined):AID2544, AID2574]; type: functional
# Sequence of Intestinal-type alkaline phosphatase (P09923 whole entry): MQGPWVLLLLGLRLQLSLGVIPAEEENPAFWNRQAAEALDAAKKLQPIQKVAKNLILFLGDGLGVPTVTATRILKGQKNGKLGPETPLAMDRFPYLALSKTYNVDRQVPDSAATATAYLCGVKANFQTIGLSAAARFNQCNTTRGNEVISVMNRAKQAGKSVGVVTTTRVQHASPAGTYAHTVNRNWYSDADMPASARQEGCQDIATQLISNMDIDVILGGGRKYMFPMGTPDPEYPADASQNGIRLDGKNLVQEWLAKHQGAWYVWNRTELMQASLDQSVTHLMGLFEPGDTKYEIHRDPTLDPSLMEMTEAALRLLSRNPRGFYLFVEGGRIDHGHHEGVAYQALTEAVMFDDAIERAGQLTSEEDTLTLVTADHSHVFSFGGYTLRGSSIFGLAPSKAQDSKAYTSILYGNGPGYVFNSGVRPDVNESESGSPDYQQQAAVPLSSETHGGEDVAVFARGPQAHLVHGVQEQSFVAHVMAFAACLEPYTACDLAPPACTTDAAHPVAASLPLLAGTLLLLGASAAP
# X-box-binding protein 1 = X-box-binding protein 1 (Homo sapiens, UniProt P17861); type: functional, Cricetulus griseus;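 note: confirmatory dose-response counter-screen serving a CHOP assay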
# Sequence of X-box-binding protein 1 (P17861 whole entry): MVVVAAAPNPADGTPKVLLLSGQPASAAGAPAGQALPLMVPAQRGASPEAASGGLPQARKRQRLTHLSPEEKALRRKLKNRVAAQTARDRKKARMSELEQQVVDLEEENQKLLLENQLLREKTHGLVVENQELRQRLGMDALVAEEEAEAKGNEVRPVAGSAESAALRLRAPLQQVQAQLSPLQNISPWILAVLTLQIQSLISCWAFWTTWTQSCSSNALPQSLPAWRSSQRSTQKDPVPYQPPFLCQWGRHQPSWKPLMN
# Protein RecA = biological target: T2, Protein RecA (Mycobacterium tuberculosis, UniProt P9WHJ3); assay: Fluorescence Cell-Free Homogeneous Dose Retest to Identify Inhibitors of RecA-Intein Splicing Activity. [Related pubchem assays (depositor defined):AID2097, AID2223, AID489010, AID492950]; type: functional
# T2 sequence (P9WHJ3 whole entry): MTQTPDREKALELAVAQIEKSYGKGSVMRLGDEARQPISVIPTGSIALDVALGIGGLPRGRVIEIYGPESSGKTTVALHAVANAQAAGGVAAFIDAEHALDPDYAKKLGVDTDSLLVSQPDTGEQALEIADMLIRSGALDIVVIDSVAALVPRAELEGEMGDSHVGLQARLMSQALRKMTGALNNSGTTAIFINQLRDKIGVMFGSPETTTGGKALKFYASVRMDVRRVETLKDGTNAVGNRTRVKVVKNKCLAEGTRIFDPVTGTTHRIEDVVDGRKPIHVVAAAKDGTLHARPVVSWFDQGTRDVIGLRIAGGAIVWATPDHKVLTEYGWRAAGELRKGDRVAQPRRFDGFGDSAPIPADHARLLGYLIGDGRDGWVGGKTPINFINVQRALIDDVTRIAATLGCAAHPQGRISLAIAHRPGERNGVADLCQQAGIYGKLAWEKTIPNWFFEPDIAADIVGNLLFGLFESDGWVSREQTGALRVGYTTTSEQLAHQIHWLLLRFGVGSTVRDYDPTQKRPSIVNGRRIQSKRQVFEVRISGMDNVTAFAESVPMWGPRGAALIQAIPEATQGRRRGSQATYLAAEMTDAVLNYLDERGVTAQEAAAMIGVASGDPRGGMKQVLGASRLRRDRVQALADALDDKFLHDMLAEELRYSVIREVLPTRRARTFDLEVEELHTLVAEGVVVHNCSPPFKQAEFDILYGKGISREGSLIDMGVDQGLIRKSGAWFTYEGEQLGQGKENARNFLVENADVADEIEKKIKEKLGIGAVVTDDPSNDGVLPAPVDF
# Hexokinase HKDC1 = Hexokinase HKDC1 (Homo sapiens, UniProt Q2TB90); assay: inhibition of HKDC1 glucose phosphorylation – biochemical, W721R variant, dose response (AID 504729); type: functional
# [3] = biological target: T3, Replicative DNA helicase DnaB (Mycobacterium tuberculosis, UniProt P9WMR3); assay: DnaB intein splicing inhibitors, dose response, biochemical, cell-free fluorescence (AID 449749); type: functional
# T3 sequence (P9WMR3 whole entry): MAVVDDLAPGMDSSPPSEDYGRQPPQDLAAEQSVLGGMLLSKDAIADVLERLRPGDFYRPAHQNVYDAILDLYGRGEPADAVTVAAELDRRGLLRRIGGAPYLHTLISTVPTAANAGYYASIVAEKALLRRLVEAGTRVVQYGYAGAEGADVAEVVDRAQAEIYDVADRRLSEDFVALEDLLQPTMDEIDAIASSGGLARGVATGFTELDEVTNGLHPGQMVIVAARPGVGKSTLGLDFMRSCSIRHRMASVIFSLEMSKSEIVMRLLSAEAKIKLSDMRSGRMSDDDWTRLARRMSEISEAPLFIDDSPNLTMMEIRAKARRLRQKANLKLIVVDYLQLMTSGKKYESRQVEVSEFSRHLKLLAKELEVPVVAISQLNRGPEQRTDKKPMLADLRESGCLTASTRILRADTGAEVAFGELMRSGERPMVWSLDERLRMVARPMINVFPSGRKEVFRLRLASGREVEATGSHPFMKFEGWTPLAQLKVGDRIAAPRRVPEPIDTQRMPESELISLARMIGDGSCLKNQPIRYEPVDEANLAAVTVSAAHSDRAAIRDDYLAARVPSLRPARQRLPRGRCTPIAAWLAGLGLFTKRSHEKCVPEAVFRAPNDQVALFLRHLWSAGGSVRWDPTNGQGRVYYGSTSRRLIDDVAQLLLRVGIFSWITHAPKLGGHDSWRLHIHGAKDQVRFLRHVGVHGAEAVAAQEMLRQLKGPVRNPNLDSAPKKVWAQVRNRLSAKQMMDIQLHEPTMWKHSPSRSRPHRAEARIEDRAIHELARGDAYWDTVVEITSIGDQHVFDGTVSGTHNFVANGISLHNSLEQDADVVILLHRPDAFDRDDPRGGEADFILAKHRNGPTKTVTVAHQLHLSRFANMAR
# [4] = biological target: Dual specificity protein phosphatase 3 (Homo sapiens, UniProt P51452); assay: inhibition constants for human DUSP3 – biochemical, colorimetric, SAR follow-up (AID 2004)
# Sequence of Dual specificity protein phosphatase 3 (P51452 whole entry): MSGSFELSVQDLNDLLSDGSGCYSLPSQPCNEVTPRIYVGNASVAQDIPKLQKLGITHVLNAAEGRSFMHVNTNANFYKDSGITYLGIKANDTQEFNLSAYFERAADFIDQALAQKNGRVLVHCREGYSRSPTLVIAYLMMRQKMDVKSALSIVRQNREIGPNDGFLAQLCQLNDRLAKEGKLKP
# [5] = biological target: Protein phosphatase methylesterase 1 (Homo sapiens, UniProt Q9Y570); assay: endogenous PME-1 and serine hydrolase inhibition – cell lysate, mouse brain cytosol, FP-rhodamine, gel ABPP, selectivity assay for PME-1 inhibitor project, dose response, panel member PME-1 Assay Panel member description: Inhibition of endogenously expressed PME-1 (AID 2366)
# Sequence of Protein phosphatase methylesterase 1 (Q9Y570 whole entry): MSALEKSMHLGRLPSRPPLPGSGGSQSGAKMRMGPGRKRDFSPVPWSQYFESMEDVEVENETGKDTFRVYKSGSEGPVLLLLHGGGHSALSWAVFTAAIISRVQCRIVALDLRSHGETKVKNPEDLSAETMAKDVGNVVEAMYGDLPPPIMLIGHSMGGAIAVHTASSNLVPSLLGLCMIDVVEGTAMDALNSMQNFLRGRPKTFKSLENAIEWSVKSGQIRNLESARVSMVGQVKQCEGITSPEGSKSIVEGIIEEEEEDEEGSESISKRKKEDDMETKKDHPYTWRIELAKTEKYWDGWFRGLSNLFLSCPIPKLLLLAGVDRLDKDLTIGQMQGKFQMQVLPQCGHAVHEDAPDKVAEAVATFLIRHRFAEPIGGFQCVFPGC
# [6] = biological target: T4, DNA repair protein RAD52 homolog (Homo sapiens, UniProt P43351); type: functional, biochemical
# T4 sequence (P43351 whole entry): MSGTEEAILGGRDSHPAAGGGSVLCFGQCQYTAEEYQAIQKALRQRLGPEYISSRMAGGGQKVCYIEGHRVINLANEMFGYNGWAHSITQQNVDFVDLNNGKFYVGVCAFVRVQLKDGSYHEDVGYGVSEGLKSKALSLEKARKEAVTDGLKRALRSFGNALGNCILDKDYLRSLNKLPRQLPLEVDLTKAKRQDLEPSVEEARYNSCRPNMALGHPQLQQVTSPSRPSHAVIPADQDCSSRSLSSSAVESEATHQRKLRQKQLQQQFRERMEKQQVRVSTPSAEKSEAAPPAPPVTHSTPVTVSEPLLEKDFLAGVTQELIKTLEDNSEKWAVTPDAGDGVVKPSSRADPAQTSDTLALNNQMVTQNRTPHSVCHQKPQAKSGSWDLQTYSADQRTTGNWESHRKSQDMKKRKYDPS
# [7] = reduction of Shn3 3'UTR-driven luciferase in osteoblasts – cell-based, Clone20 osteoblasts, firefly luciferase, cherry-picked, dose response (AID 624132); type: functional;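 note: firefly luciferase luminescence from reporter carrying the Shn3 3'UTR in osteoblasts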
# [8] = Cytotoxicity screening for potential Inhibitors of Bacterial Capsule Biogenesis. [Related pubchem assays (depositor defined):AID488970]; type: functional
# [9] = viability loss in HeLa cells – cytotoxicity control for MgcRacGAP inhibitor project, dose response (AID 624300); type: functional
# [10] = biological target: T5, Rac GTPase-activating protein 1 (Homo sapiens, UniProt Q9H0H5); assay: blockers of MgcRacGAP-driven Rac1 GTP hydrolysis – biochemical, ADP Hunter fluorescence, primary and confirmatory, confirmation (AID 624330); type: functional
# T5 sequence (Q9H0H5 whole entry): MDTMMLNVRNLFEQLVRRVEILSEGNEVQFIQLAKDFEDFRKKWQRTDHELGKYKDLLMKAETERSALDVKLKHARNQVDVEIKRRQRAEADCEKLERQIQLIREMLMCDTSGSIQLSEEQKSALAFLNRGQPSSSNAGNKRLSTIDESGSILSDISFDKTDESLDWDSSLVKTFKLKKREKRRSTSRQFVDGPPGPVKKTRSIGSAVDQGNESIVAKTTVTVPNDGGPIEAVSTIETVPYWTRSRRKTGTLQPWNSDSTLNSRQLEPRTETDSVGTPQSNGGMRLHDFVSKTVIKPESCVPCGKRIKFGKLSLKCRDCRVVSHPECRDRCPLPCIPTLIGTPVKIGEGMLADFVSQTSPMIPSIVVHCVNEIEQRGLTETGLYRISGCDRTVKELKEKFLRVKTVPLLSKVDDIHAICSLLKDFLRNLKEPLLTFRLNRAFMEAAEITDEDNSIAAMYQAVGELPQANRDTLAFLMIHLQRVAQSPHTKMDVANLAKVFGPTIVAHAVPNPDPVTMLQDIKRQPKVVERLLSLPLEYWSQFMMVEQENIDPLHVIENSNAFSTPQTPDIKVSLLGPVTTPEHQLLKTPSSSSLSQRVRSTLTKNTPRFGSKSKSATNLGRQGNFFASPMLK
# [11] = loss of viability in HepG2 cells – cell-based, CellTiter-Glo, cherry-picked, cytotoxicity control for Shn3 inhibitor project, dose response (AID 624134); type: functional
# [12] = non-specific 3'UTR reporter inhibition in Clone20-Shn3RL – cell-based, Renilla luciferase, cherry-picked, counter-screen for Shn3 inhibitor project, dose response (AID 624133); type: functional
# [13] = biological target: Endoplasmic reticulum aminopeptidase 1 (Homo sapiens, UniProt Q9NZ08); assay: inhibition of human ERAP1 enzyme activity – biochemical, cherry-pick, set 2, plate reader, dose response (AID 743314)
# Nonstructural protein 1 = Nonstructural protein 1 (Influenza A virus, UniProt Q194T2); type: functional, Influenza A virus (A/California/07/2009(H1N1))
# Sequence of Nonstructural protein 1 (Q194T2 whole entry): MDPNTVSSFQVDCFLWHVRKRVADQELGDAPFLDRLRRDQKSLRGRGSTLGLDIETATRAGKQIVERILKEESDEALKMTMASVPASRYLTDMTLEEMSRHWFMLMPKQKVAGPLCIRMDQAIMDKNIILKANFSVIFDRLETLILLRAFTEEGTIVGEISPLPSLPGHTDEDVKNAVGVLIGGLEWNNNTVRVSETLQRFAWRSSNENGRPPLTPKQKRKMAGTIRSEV
# [14] = inhibition of mouse IRAP aminopeptidase activity – biochemical, Leu-AMC fluorescence, cherry-picked samples, set 2, selectivity assay for ERAP1 modulator project, dose response (AID 743340)
# [15] = biological target: T6, Voltage-gated N-type calcium channel alpha-1B subunit/Amyloid beta A4 precursor protein-binding family A member 1 (Homo sapiens, UniProt Q00975+Q02410); assay: disruptors of Mint-PDZ/N-type channel peptide interaction – biochemical, HTRF, set 2, SAR follow-up (AID 434980); type: functional
# T6 sequence (Q00975 whole entry): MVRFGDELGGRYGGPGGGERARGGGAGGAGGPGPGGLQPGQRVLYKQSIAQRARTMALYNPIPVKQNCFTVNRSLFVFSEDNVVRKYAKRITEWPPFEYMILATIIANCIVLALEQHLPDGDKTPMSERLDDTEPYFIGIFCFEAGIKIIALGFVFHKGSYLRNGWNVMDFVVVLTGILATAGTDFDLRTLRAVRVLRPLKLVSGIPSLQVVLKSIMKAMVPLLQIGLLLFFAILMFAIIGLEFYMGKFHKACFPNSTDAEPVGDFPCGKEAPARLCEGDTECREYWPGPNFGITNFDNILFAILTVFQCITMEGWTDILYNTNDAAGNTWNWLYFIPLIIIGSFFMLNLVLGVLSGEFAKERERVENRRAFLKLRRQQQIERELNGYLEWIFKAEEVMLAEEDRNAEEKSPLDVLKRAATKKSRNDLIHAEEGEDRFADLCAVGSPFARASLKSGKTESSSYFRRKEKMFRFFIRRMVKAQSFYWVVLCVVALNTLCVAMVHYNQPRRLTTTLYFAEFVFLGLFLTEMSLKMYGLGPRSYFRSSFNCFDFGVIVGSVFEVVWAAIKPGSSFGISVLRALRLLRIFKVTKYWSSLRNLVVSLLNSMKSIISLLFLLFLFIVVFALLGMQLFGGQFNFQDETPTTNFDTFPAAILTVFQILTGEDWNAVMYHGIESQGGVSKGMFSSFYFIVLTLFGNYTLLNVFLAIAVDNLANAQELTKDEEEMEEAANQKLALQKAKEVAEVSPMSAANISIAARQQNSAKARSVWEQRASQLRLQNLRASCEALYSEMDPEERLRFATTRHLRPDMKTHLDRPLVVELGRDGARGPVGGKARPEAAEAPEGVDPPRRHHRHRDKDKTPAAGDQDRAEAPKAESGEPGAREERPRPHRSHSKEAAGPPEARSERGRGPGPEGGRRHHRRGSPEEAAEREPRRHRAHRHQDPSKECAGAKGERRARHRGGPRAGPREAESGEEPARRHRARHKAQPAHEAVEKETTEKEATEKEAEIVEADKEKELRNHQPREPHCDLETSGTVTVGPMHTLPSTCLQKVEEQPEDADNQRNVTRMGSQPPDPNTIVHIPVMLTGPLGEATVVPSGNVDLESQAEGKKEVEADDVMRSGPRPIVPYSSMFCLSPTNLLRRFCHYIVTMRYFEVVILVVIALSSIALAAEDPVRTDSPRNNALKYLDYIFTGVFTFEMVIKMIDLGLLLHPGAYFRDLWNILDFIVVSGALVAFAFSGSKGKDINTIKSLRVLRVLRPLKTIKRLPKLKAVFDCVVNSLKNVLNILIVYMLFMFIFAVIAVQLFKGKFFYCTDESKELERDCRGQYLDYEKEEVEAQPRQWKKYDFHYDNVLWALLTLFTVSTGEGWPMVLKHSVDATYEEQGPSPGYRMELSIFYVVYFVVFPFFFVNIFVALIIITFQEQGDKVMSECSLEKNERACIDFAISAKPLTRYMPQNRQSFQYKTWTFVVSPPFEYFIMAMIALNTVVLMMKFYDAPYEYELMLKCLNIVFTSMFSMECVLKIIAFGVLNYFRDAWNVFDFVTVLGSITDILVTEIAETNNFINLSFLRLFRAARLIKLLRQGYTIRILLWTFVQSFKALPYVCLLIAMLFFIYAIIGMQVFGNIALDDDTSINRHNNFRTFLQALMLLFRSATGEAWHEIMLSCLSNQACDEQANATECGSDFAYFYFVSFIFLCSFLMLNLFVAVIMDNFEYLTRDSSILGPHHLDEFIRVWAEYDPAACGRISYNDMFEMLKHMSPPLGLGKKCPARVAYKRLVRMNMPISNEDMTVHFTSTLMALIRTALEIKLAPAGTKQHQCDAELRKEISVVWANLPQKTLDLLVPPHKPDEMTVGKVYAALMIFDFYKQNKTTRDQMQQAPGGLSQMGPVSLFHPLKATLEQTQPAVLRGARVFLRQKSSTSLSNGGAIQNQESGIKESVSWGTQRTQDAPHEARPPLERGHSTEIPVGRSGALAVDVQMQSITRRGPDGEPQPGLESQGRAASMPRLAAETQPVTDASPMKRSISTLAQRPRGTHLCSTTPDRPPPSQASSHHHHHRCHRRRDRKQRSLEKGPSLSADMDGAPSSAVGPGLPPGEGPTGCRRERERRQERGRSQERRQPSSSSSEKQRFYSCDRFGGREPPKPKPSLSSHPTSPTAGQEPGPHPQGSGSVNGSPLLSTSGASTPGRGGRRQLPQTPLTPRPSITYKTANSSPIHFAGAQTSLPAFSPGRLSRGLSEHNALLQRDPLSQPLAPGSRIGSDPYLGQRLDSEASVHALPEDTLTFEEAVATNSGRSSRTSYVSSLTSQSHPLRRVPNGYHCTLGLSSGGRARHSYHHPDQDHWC
# T6 sequence (Q02410 whole entry): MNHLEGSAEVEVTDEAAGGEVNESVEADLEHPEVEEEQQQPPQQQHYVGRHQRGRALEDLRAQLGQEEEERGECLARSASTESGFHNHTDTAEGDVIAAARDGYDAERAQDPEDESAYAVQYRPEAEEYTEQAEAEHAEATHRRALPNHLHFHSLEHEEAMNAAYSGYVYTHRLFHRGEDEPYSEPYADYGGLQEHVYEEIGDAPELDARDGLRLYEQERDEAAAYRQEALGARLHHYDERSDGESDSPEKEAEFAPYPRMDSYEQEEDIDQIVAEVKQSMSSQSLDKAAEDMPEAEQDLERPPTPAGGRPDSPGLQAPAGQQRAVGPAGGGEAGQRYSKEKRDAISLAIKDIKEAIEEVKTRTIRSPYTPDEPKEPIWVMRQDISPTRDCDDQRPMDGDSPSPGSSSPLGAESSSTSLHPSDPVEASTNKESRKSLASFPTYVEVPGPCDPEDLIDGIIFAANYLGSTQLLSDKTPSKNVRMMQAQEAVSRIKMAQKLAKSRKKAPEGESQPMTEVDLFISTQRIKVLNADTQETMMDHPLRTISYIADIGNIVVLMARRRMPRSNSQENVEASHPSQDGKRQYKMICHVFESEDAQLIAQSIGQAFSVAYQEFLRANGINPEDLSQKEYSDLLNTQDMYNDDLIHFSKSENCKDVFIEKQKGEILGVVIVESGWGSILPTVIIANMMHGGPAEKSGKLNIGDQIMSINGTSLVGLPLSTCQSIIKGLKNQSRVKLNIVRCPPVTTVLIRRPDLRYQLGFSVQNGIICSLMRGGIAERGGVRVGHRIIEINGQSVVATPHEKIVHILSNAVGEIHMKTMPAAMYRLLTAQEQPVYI
# [16] = biological target: T6, Voltage-gated N-type calcium channel alpha-1B subunit/Amyloid beta A4 precursor protein-binding family A member 1; assay: disruptors of Mint-PDZ/N-type channel peptide interaction – biochemical, HTRF, SAR follow-up (AID 2489); type: functional
# ORF 73 = ORF 73 (Human herpesvirus 8, UniProt O40947); assay: KSHV LANA DNA-binding disruption – biochemical, fluorescence polarization, cherry-picked samples, dose response (AID 504725); design: species or system Human gammaherpesvirus 8;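 note: fluorescence polarization of a labeled DNA duplex reporting LANA DNA binding; potency is for inhibitors that block LANA binding to the DNA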
smiles,measurement,setting,value
CCCCn1c2ccccc2c2nnc(SCCN3CCCCC3)nc21,EC50,[1],6.68 µM (active)
COC(=O)CN1C(=O)C(O)(CC(=O)c2ccc(C)cc2)c2ccccc21 (stereo unspecified),IC50,[2],> 100 µM (inactive)
Cc1csc(NC(=O)CSc2nnc3c4ccccc4nc(C(C)(C)C)n23)n1,Absolute IC50 (XBP1),X-box-binding protein 1,10 µM
CC(OC(=O)c1cc(O)c2ccccc2c1O)C(=O)Nc1ccc(C(N)=O)cc1 (stereo unspecified),EC50,Protein RecA,4.51 µM (active)
same,IC50,Hexokinase HKDC1,52.7 µM (inactive)
same,AC50,[3],5.11 µM (active)
COc1ccc(C2C3C(=O)N(c4ccccc4)C(=O)C3N3CCCN23)cc1 (stereo unspecified),Ki,[4],112 µM (inactive)
N#CC(C#N)=Cc1cccn1S(=O)(=O)c1ccccc1,IC50,[5],20 µM (inactive)
CCN(CCCl)c1cc(CN(C)C)cc(NC(=O)c2ccc(C(=O)Nc3cc(CN(C)C)cc(N(CC)CCCl)c3)cc2)c1,AC50,[6],1.71 µM (active)
same,AC50,[7],2.65 µM (active)
same,CC50,[8],< 0.38 µM (active)
same,CC50,[9],6.78 µM (active)
same,IC50,[10],126 µM (active)
same,AC50,[11],1.25 µM (active)
same,AC50,[12],13.1 µM (active)
same,AC50,[13],4.85 µM (active)
same,IC50,Nonstructural protein 1,7.89 µM (active)
same,AC50,[14],19.4 µM (active)
CC12C=CC(C)(O1)C1C(=O)N(c3ccc(Cl)cc3)C(=O)C12 (stereo unspecified),IC50,[15],> 56.8 µM (inactive)
same,IC50,[16],> 56.8 µM (inactive)
CCOc1ccc(-n2c(Cc3cc(O)nc(O)n3)nnc2SCc2cccnc2)cc1,AC50,ORF 73,76.4 µM (active)
